Tests used:
[1] = system: Quadruplex DNA; experiment: Thermal stabilization of human telomeric G-quadruplex F21T DNA (FAM-5'-GGGTTAGGGTTAGGGTTAGGG-3'-TAMRA) assessed as change in half-width of melting temperature at 2 uM by FRET-melting assay; format: nucleic-acid assay
[2] = system: Non-structural protein 3/TRF2 G-quadruplex ribonucleic acid; experiment: Inhibition of N-terminal His-tagged SARS-CoV-2 Nsp3 SUD-NM domain (413-676 residues)/SARS-CoV-2 TRF2 G-quadruplex RNA incubated for 2 hrs by HTRF assay; format: protein assay, Severe acute respiratory syndrome coronavirus 2
[3] = Cytotoxicity against human Caco-2 cells harboring ACE2-CI33 assessed as cell viability by celltiter glo assay; format: toxicity, cell-based
[4] = Cytotoxicity against human A549 cells harboring ACE2-CI33 assessed as cell viability by celltiter glo assay; format: toxicity, cell-based
[5] = system: Quadruplex DNA; experiment: Thermal stabilization of human telomeric G-quadruplex F21T DNA (FAM-5'-GGGTTAGGGTTAGGGTTAGGG-3'-TAMRA) assessed as change in half-width of melting temperature at 0.5 uM by FRET-melting assay; format: nucleic-acid assay
[6] = system: Quadruplex DNA; experiment: Thermal stabilization of human telomeric G-quadruplex F21T DNA (FAM-5'-GGGTTAGGGTTAGGGTTAGGG-3'-TAMRA) assessed as change in half-width of melting temperature at 1 uM by FRET-melting assay; format: nucleic-acid assay

Structure (SMILES)	deltaTm1/2 [1] [°C]	IC50 [2] [nM]	CC50 at 75 h [3] [nM]	CC50 [4] [nM]	deltaTm1/2 [5] [°C]	deltaTm1/2 [6] [°C]
CC(C)CCCCNCc1ccc(-c2cc(-c3ccc(CNCCCCC(C)C)cc3)c3ccn(-c4ccccc4)c3c2)cc1	4	> 500				
CN(C)CCCNCc1ccc(-c2nc(-c3ccc(CNCCCN(C)C)cc3)c3ccn(-c4ccccc4)c3n2)cc1	25.9	137				
CN(C)CCCCCNCc1ccc(-c2cn(-c3ccccc3)c3ncnc(-c4ccc(CNCCCCCN(C)C)cc4)c23)cc1	14.8	140				
CN(C)CCCNCc1ccc(-c2nc(-c3ccc(CNCCCN(C)C)cc3)c3ccn(-c4ccc(CNCCCN(C)C)cc4)c3n2)cc1	34.9	50	≥ 7200			
O=c1c(O)cc([C@H]2Oc3cc(O)cc(O)c3C[C@H]2O)cc2c([C@H]3Oc4cc(O)cc(O)c4C[C@H]3O)cc(O)c(O)c12 [THEAFLAVIN]		> 500				
CN(C)CCCNCc1ccc(-c2cn(-c3ccc(CNCCCN(C)C)cc3)c3ncnc(-c4ccc(CNCCCN(C)C)cc4)c23)cc1	20.3	46				
CN1CCN(CCCCNCc2ccc(-c3ccc4ccc5ccc(-c6ccc(CNCCCCN7CCN(C)CC7)cc6)nc5c4n3)cc2)CC1	24.1	31.4		> 10000		
CN(C)CCCCCNCc1ccc(-c2cc3c(ccn3-c3ccccc3)c(-c3ccc(CNCCCCCN(C)C)cc3)n2)cc1	22.6	> 200				
CN(C)CCCCNCc1ccc(-c2ccc3ccc4ccc(-c5ccc(CNCCCCN(C)C)cc5)nc4c3n2)cc1	18.5	31.2		> 10000		
CN1CCN(CCCCNCc2ccc(-c3nc(-c4ccc(CNCCCCN5CCN(C)CC5)cc4)c4ncn(-c5ccccc5)c4n3)cc2)CC1	30.2	115				
CN(C)CCCCNCc1ccc(-c2cc(-c3ccc(CNCCCCN(C)C)cc3)c3ccn(-c4ccccc4)c3c2)cc1	23.7	75	2140	2830		
C[n+]1cc(NC(=O)c2ccc3ccc4ccc(C(=O)Nc5cc6ccccc6[n+](C)c5)nc4c3n2)cc2ccccc21					21.2	
CN1CCN(CCCCNCc2ccc(-c3cc(-c4ccc(CNCCCCN5CCN(C)CC5)cc4)c4ccn(-c5ccccc5)c4c3)cc2)CC1	20.4	74				
CN(C)CCCCNCc1ccc(-c2nc(-c3ccc(CNCCCCN(C)C)cc3)c3ncn(-c4ccccc4)c3n2)cc1	31.7	79				
CN(C)CCCCNCc1ccc(-c2nc(-c3ccc(CNCCCCN(C)C)cc3)c3c(ccn3-c3ccccc3)n2)cc1	18.6	90				
CN(C)CCCCNCc1ccc(-c2cc(-c3ccc(CNCCCCN(C)C)cc3)c3ccn(-c4ccccc4)c3n2)cc1	26.3	223				
CN(C)CCCCNCc1ccc(-c2cn(-c3ccccc3)c3ncnc(-c4ccc(CNCCCCN(C)C)cc4)c23)cc1	13.1	> 500				
CN(C)CCCCCNCc1ccc(-c2cc(-c3ccc(CNCCCCCN(C)C)cc3)c3ccn(-c4ccccc4)c3c2)cc1	30.9	90	2320	3010		
O=C(O[C@@H]1Cc2c(O)cc(O)cc2O[C@@H]1c1cc(O)c(=O)c2c(O)c(O)cc([C@H]3Oc4cc(O)cc(O)c4C[C@H]3OC(=O)c3cc(O)c(O)c(O)c3)c2c1)c1cc(O)c(O)c(O)c1	0.9					
CN(C)CCCCNCc1ccc(-c2nc(-c3ccccc3)c3ccn(-c4ccc(CNCCCCN(C)C)cc4)c3n2)cc1	26.4	97				
CN(C)CCCCCNCc1ccc(-c2nc(-c3ccc(CNCCCCCN(C)C)cc3)c3ncn(-c4ccccc4)c3n2)cc1	34	103				
CN(C)CCCCNCc1ccc(-c2cc3c(ccn3-c3ccccc3)c(-c3ccc(CNCCCCN(C)C)cc3)n2)cc1	21	87				
CCN(CC)CCCCNCc1ccc(-c2cc3c(ccn3-c3ccccc3)c(-c3ccc(CNCCCCN(CC)CC)cc3)n2)cc1	28.7	446				
CN(C)CCCCNCc1ccc(-c2nc(-c3ccc(CNCCCCN(C)C)cc3)c3ccn(-c4ccc(CNCCCCN(C)C)cc4)c3n2)cc1	> 36	48				23.8
